The subject of one series is T98G glioma cells. As to the kind of experiment: MTT test, overall cell growth, T98G. It is filed as cell-based, human. The note with it: 72 hours of incubation. The method in brief:
(§1)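 Glioma (Hs683, T98G, U373) and oesophageal (OE21, OE33) lines seeded at 5,000–8,000 cells/well, treated 24 h later with compound at 1×10^−8 to 1×10^−4 M for 72 h at 37 °C, in sestuplicate.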
(In general: Tetrazolium dyes change colour on reduction, which living cells bring about.)

The next series concerns U373 glioma cells. Briefly: MTT test, overall cell growth, U373. To be noted: 72 hours of incubation. It is filed as cell-based, human. Put shortly: as §1
Series [1] deals with human cancer cell lines (U373, T98G, Hs683, OE21, OE33). Briefly: MTT test, mean over the cancer cell lines. It is filed as cell-based. Put shortly: as §1
The subject of series [2] is OE33 oesophageal cancer cells. Briefly: MTT test, overall cell growth, OE33. It counts as cell-based, human. Put shortly:
as §1

The subject of the next series is U373 cells. As to the kind of experiment: Cellular imaging (videomicroscopy) of cultured U373 cells: antiproliferative class and global growth ratio. It is filed as cell-based, human. Further details: key to Anti proliferative class / anti-proliferative class-GGR: class I: actually cytostatic for 3 days (<10% of cell death at the 3rd day); class II: cyctostatic but becomes cytotoxic with <10% cell death on the 2nd day, and >20% of cell death on the 3rd day; class III: cytostatic but rapidly becomes cytotoxic with <10% cell death on the 1st day, >20% of cell death on the 2nd day and >50% of cell death on the 3rd day; class IV: cytotoxic (>50% of cell death on the first day). The note with it: for global growth ratio (GGR): GG treated cells/GG control cells, 72 h after drug addition, drug at its IC50 (MTT-test determined); for Anti proliferative class: cellular imaging of cultured U373 cells over three consecutive days. Put shortly:
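U373-MG glioma cells seeded at low density, exposed or not to compound […], filmed by videomicroscopy for 72 h, in quadruplicate. Cells counted on first (0 h) and last (72 h) images; GGR = final/initial count, reported as GGR treated/GGR control.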

Series [3] has as its system OE21 oesophageal cancer cells. Briefly: MTT test, overall cell growth, OE21. It is filed as cell-based, human. Put shortly: as §1
The test system of a further series is Hs683 glioma cells. Briefly: MTT test, overall cell growth, Hs683. It counts as cell-based, human. The method in brief:
as §1

[4] abbreviates: Homo sapiens, mean over the cancer cell lines, MTT test, read-out: IC50 Mean ± SEM.
The mark [5] stands for this setting: Homo sapiens, OE33, 72 hours of incubation.
The mark [6] stands for this setting: Homo sapiens, OE21, 72 hours of incubation.
Where [7] appears, read: Homo sapiens, Hs 683, 72 hours of incubation.
Setting [8] is: mean over the cancer cell lines, MTT test, read-out: IC50 Mean ± SEM.
[9] abbreviates: Homo sapiens, Glioma cell, MTT assay, submicromolar range, e.g. as low as, read-out: mean anti-proliferative effect on the glioma cell lines.

Where two headings read alike, the source gives them in different places.

As a reminder, the melting point is the temperature, or range, at which the solid turns liquid.

`Cc1nccc2c3ccc(OCCC(C)C)cc3n(CCC(C)C)c12` [PL3, 1-methyl-7-(3-methylbutyloxy)-9-(3-methylbutyl)-β-carboline]: the melting point stood at 106.4 °C.

`Cc1c2c(cc[n+]1Cc1ccc(F)cc1)c1ccc(OCc3ccccc3)cc1n2Cc1ccccc1.[Br-]` [CV17, 1-methyl-2-(4-fluorobenzyl)-7-benzyloxy-9-benzyl-β-carbolin-2-ium bromide]: the IC50 in the series on T98G glioma cells (Homo sapiens, T98G) stood at 560 ± 50 nM; in the series on U373 glioma cells (Homo sapiens, U373 MG), 590 ± 60 nM; in series [1] (setting [4]), 1200 ± 400 nM; in series [2] (setting [5]), 2400 ± 300 nM; in series [3] (setting [6]) it was 610 ± 40 nM; in the series with Hs683 glioma cells (setting [7]) it was 1600 ± 300 nM. Further, the “global growth ratio (GGR)” value with U373 cells worked out at 0.4. The Anti proliferative class result in the series with U373 cells was “I (class I: actually cytostatic for 3 days (<10% of cell death at the 3rd day))”.

On to `Cc1nccc2c1[nH]c1cc(OCCCC(F)(F)F)ccc12` [JR110], for which the IC50 was 86000 ± 11000 nM in the series with T98G glioma cells; more than 100000 nM in the series on U373 glioma cells; more than 97000 nM in series [1] (setting [8]); more than 100000 nM in series [2] (72 hours of incubation); more than 100000 nM in series [3] (72 hours of incubation); more than 100000 nM with Hs683 glioma cells (72 hours of incubation). Moreover, the “global growth ratio (GGR)” value in the series with U373 cells stood at 0.2. In the series with U373 cells, the Anti proliferative class entry was “IV (class IV: cytotoxic (>50% of cell death on the first day))”.

In the case of `Cc1c2c(cc[n+]1Cc1ccccc1F)c1ccc(OCC3CCCCC3)cc1n2CC1CCCCC1.[Br-]` [CV26, 1-methyl-2-(2-fluorobenzyl)-7-cyclohexylmethyloxy-9-cyclohexylmethyl-β-carbolin-2-ium bromide], the IC50 is 70 ± 8 nM in the series on T98G glioma cells (Homo sapiens, T98G); 1420 ± 80 nM in the series with U373 glioma cells (Homo sapiens, U373 MG); 340 to 800 nM in series [1] (setting [9]); 500 ± 200 nM in series [1] (setting [4]); 350 ± 20 nM in series [2] (setting [5]); 350 ± 10 nM in series [3] (setting [6]). Moreover, the IC50 with Hs683 glioma cells (setting [7]) was found to be 250 ± 20 nM. In the series on U373 cells, the “global growth ratio (GGR)” value amounted to 0.2. Further, the Anti proliferative class entry with U373 cells is on record as “I (class I: actually cytostatic for 3 days (<10% of cell death at the 3rd day))”.

On to `Cc1c2c(cc[n+]1Cc1ccccc1)c1ccc(OCc3ccc(F)cc3)cc1n2Cc1ccc(F)cc1.[Br-]` [CV23, 1-methyl-2-benzyl-7-(4-fluorobenzyl)oxy-9-(4-fluorobenzyl)-β-carbolin-2-ium bromide], for which the IC50 in the series with T98G glioma cells (Homo sapiens, T98G) is 400 ± 40 nM; in the series on U373 glioma cells (Homo sapiens, U373 MG), 430 ± 70 nM; in series [1] (setting [9]), 340 to 800 nM; in series [1] (setting [4]), 800 ± 200 nM; in series [2] (setting [5]), 1400 ± 100 nM; in series [3] (setting [6]) it was 500 ± 90 nM. In the series with Hs683 glioma cells (setting [7]), this molecule displayed an IC50 of 900 ± 100 nM. Further, the “global growth ratio (GGR)” value in the series on U373 cells is recorded as 0.3. The Anti proliferative class entry in the series with U373 cells is reported as “I (class I: actually cytostatic for 3 days (<10% of cell death at the 3rd day))”.

As for `Cc1nccc2c1[nH]c1cc(OCc3ccccn3)ccc12` [JR169], the IC50 is 20000 ± 2000 nM in the series with T98G glioma cells; 21300 ± 800 nM with U373 glioma cells; 20000 ± 1000 nM in series [1] (setting [8]); 23000 ± 3000 nM in series [2] (72 hours of incubation); 16000 ± 3000 nM in series [3] (72 hours of incubation); 20000 ± 1000 nM in the series with Hs683 glioma cells (72 hours of incubation). Moreover, in the series with U373 cells, the “global growth ratio (GGR)” value is given as 0.4. In addition, the Anti proliferative class entry in the series with U373 cells is recorded as “I (class I: actually cytostatic for 3 days (<10% of cell death at the 3rd day))”.

Consider `Cc1nccc2c1[nH]c1cc(OCc3ccccc3)ccc12` [JR79, 1-methyl-7-benzyloxy-β-carboline], for which the IC50 amounted to 17000 ± 3000 nM in the series with T98G glioma cells (Homo sapiens, T98G); 9300 ± 200 nM in the series on U373 glioma cells (Homo sapiens, U373 MG); 14000 ± 3000 nM in series [1] (setting [4]); 4100 ± 600 nM in series [2] (setting [5]); 21000 ± 1000 nM in series [3] (setting [6]); 17000 ± 2000 nM in the series with Hs683 glioma cells (setting [7]). Moreover, the “global growth ratio (GGR)” value in the series with U373 cells is given as 0.2. Further, in the series on U373 cells, the Anti proliferative class result is recorded as “III”.

Take `Cc1c2c(cc[n+]1Cc1ccc(F)cc1)c1ccc(OCc3ccc(F)cc3)cc1n2Cc1ccc(F)cc1.[Br-]` [CV29, 1-methyl-2-(4-fluorobenzyl)-7-(4-fluorobenzyl)oxy-9-(4-fluorobenzyl)-β-carbolin-2-ium bromide]: the IC50 came out at 14000 ± 2000 nM in the series with T98G glioma cells (Homo sapiens, T98G); 2900 ± 100 nM in the series with U373 glioma cells (Homo sapiens, U373 MG); 7000 ± 3000 nM in series [1] (setting [4]); 3100 ± 300 nM in series [2] (setting [5]); 3700 ± 200 nM in series [3] (setting [6]); 13000 ± 1000 nM in the series on Hs683 glioma cells (setting [7]). In the series on U373 cells, the “global growth ratio (GGR)” value stood at 0.1. Besides, the Anti proliferative class result with U373 cells is “IV (class IV: cytotoxic (>50% of cell death on the first day))”.
